Assay [1] deals with BV-2. Description: Anti-inflammatory activity in mouse BV-2 cells assessed as inhibition of LPS-induced NO production preincubated with compound for 1 hrs followed by LPS stimulation and measured after 24 hrs by Griess reagent based assay. Type of assay: functional, cell-based. Background: Nitrite, measured by Griess reagent, commonly stands in for NO production.
Assay [2] deals with BV-2. Description: Anti-inflammatory activity against LPS-induced mouse BV-2 cells assessed as increase in cell viability preincubated with compound for 1 hrs followed by LPS stimulation and measured after 24 hrs by CCK-8 method. Type of assay: functional, cell-based. To be noted: dose 2.5-20 µM, time 25.0 hrs.

By IC50 is commonly meant the concentration needed to halve the response being measured. Regarding `CCCCCC[C@@H]1O[C@]23O[C@H]1CC=C2C(=O)CC[C@H]3O`, the IC50 with BV-2 [1] came out at 8.9 µM. Besides, in the assay with BV-2 [2], the Activity result was “Dose-Dependent Effect”.
The corresponding values for `CCCCCC[C@@H]1O[C@@]23CC[C@@H](O)C(=O)[C@H]2CC[C@@H]1O3` are 14 µM and “Dose-Dependent Effect”.
For the compound `CCCCCC[C@H]1O[C@]23O[C@H]1CC[C@@H]2C(=O)CC[C@H]3O`, the IC50 in the assay on BV-2 [1] came out at 3 µM. Further, in the assay with BV-2 [2], the Activity result was “Dose-Dependent Effect”.

These data come from ChEMBL document CHEMBL5321265, “Polyketides with Anti-Inflammatory Activity from Trichoderma koningiopsis, a Rhizosphere Fungus from the Medicinal Plant Polygonum paleaceum” (J Nat Prod, 2023).
